Test results as given in patent US20130184310A1, “TREATMENT OF LUPUS ARTHRITIS USING LAQUINIMOD” (Teva Pharmaceutical Industries, Ltd., priority 2010, published 2013).

Columns and labels:
[1] = test system: (NZBxNZW)F1 mouse model of SLE; details: MTX 35 μg/mouse p.o. 3 times a week; for immune complex deposition (ICD) in kidney glomeruli: end of experiment (12 weeks) vs vehicle; for immune complex deposition (ICD) in kidney glomeruli / proteinuria (PU): laquinimod 25 mg/kg p.o. daily, CTX 25 mg/ig i.p. once weekly; for proteinuria (PU): week 12 observation vs vehicle (water)
Procedure: (NZBxNZW)F1 are lupus-prone mice that develop an SLE-like disease spontaneously including anti-dsDNA antibodies (Abs), proteinuria and Immune Complex Deposits (ICD).
In a number of studies, the effect of various doses of laquinimod in the (NZBxNZW)F1 model for SLE were assessed. The studies also included a negative control (water) and positive controls including cyclophosphamide (CTX) and methotrexate (MTX).
This study investigated the effect of laquinimod, an immunomodulator of SLE in a murine model of SLE and compared the treatment effect to reference substances CTX and MTX.
Laquinimod and reference compounds CTX and MTX were applied in therapeutic mode, starting the treatment at the time when the characteristic change of murine SLE model, proteinuria (PU) was present in >80% of animals, and the observation and treatment period following this was 12 weeks. Laquinimod was applied p.o. daily, in a dose of 25 mg/kg. CTX was applied once weekly in a dose of 25 mg/ig i.p. MTX was applied 3 times a week p.o. at 35 μg/mouse.
Also, body weight changes were recorded weekly and at the end of experiment both kidneys were preserved, one for possible conventional histology and one for immune complex detection *ICD) in glomeruli. Evaluation of ICD was performed by scoring and by image analysis.
80 animals were involved in the study.

[2] = test system: MRL/lpr lupus mouse model; test: Non-GLP in vivo evaluation of laquinimod in the MRL/lpr lupus mouse model (Example 1.4); details: for kidney glomerulonephritis (histopathology) / salivary gland inflammation (histopathological scoring): laquinimod 5 mg/kg p.o., MMF 100 mg/kg p.o., compared to vehicle
Procedure: This study evaluates the efficacy of laquinimod in the MRL/lpr lupus mouse model.
Animals were monitored until their urine proteinuria reached >200 mg/dL at which time they were enrolled in the study. Animals were dosed with either 1 or 5 mg/kg of laquinimod, p.o., 100 mg/kg mycophenolate mofetil (MMF, CellCept®) p.o., or vehicle (water DDW), p.o., daily except weekends.
Proteinuria, ankle and paw diameters, dsDNA autoantibody levels and survival were monitored during in life portion of the study. At termination, blood samples were harvested for determination of dsDNA autoantibody levels, spleens were harvested and weighed then processed to isolate splenocytes which were counted. Kidney, lung, skin, lymph node, salivary gland and joints were harvested, processed for histological examination and scored by a histopathologist blind to the treatments.

[3] = test system: Systemic Lupus Erythematosus (SLE) patients with active lupus arthritis; test: Phase IIa randomized, double-blind, placebo-controlled clinical trial of laquinimod in lupus arthritis (Example 2); assay type: in vivo, human; details: daily oral 0.5 mg or 1 mg
Procedure: A multicenter, randomized, double-blind, placebo controlled clinical trial is conducted to evaluate the safety, tolerability, biomarkers and clinical effect of laquinimod (0.5 mg/day and 1 mg/day) in Systemic Lupus Erythematosus (SLE) patients with active lupus arthritis.
Approximately 90 Systemic Lupus Erythematosus patients with active lupus arthritis are enrolled. (approximately 30 subjects per treatment arm). Drop-outs are not replaced.
The overall study duration is up to 20 weeks, with the screening period being up to 2 weeks, the treatment period being 12 weeks and the follow-up period being 4 weeks.
Capsules containing laquinimod 0.5 mg and/or matching placebo are administered orally once daily: • 1. Laquinimod 0.5 mg arm—1 capsule of laquinimod 0.5 mg and 1 matching placebo capsule. • 2. Laquinimod 1 mg arm—2 capsules of laquinimod 0.5 mg. • 3. Placebo arm—2 capsules of placebo.
This is a Phase IIa, randomized, double-blind, placebo-controlled, study to assess the safety, tolerability, pharmacokinetics, biomarkers and clinical effect of two doses of laquinimod in Systemic Lupus Erythematosus patients with active lupus arthritis. This study evaluates the safety, tolerability of two doses of laquinimod (0.5 mg and 1 mg/day) in Systemic Lupus Erythematosus patients with active lupus arthritis. This study also evaluates biomarkers and clinical effect of laquinimod (0.5 mg and 1 mg/day) in Systemic Lupus Erythematosus patients with active lupus arthritis.
Subjects are initially randomized in a 1:1 ratio into one of the following two treatment arms: • 1. Laquinimod 0.5 mg. • 2. Matching placebo.
Enrollment to the 1 mg laquinimod dose group is initiated following the approval of the study safety committee, based on data of at least 10 subjects who have completed at least 4 weeks of treatment. Upon approval, randomization into one of the following three treatment arms occurs in a ratio that allows for reaching an overall target enrollment of approximately 30 subjects per treatment arm. • 1. Laquinimod 0.5 mg. • 2. Laquinimod 1 mg. • 3. Matching placebo.
Scheduled in-clinic visits are conducted at screening, baseline and at weeks 2, 4, 8, 12 and 16.
Treatment with laquinimod/placebo is discontinued on visit week 12 and a follow-up/study completion visit is conducted at week 16. Subjects who early discontinued study drug prior to visit week 12 preferably attend a follow-up study completion visit within 4 weeks (28 days) of treatment termination visit.
During the study period the British Isles Lupus Assessment Group (BILAG) score, SLE Disease Activity Index (SLEDAI 2K), Swollen and Tender joint count, Patient Global Assessment score (PGA), Evaluator Global Assessment score (EGA) and Patient Pain assessment (PtP) are assessed in addition to routine safety laboratory and physical tests, PK analysis and disease related immunology tests/biomarkers.
Response Definitions • BILAG MSK response is defined as change from Musculoskeletal A or B at baseline to C or D at LOV. • BILAG Substantial Responder (SR) is defined as all systems at last observed value (LOV) are C or D/E providing at least one system is A or B at baseline. • SLEDAI 2K response—decrease in SLEDAI of at least 4 point compared to baseline • Medicinal/Interventional flare defined as any of the following • Steroid increase by at least 5 mg/day compared to previous dose or compared to baseline or any IV, IM or Intraarticular dose. • New continuous treatment (>3 days) or increase in dose of NSAIDs or COX2 inhibitors. • New treatment or dose increase with an immunosuppressive drug compared to previous dose or compared to baseline. • Treatment with biologic agents, IVIG or plasmapheresis. • New treatment or dose increase of antimalarial drugs compared to previous dose or compared to baseline.
Lupus Arthritis • 1. […]

[4] = test system: (NZBxNZW)F1 mice; test: Survival dose response study of laquinimod in the (NZBxNZW)F1 model for SLE, 37 weeks (Example 1.2); assay type: in vivo, mouse
Procedure: This was a survival dose response study to determine whether laquinimod is effective in suppressing the symptoms in (NZBxNZW)F1 mice. The positive control used was Cytoxan.
Seventy-one mice having spontaneous disease developed by the age of 7 months (as measured by proteinuria) were divided into 6 experimental groups (Water, CTX, Laquinimod 0.2 mg/kg, Laquinimod 1.0 mg/kg, Laquinimod 5.0 mg/kg, Laquinimod 25.0 mg/kg) according to their PU scores.
Water and Laquinimod were administered orally (200 μl/mouse) 5 days a week. CTX was administered intraperitonealy once weekly, (200 μl/mouse). Blood samples were collected on weeks 1, 5, 15 and 37. Serum samples were prepared for detection of anti-dsDNA antibodies. After 37 weeks (257 days) of treatment, mice were sacrificed.

[5] = test system: (NZBxNZW)F1 mice; test: Confirmation of efficacy of laquinimod in the (NZBxNZW)F1 model for SLE, 13 weeks (Example 1.3); assay type: in vivo, mouse
Procedure: This study examined the effect of laquinimod (0.2 and 5 mg/kg) versus CTX and vehicle treated (NZBxNZZW)F1 mice. Seventy mice having spontaneous disease developed by the age of 7 months (as measured by proteinuria) were divided into 4 experimental groups (Water, CTX, Laquinimod 0.2 mg/kg, Laquinimod 5.0 mg/kg,) according to their PU scores. Water and Laquinimod were administered orally (200 μl/mouse) 5 days a week. CTX was administered intraperitonealy once weekly, (200 μl/mouse). Blood samples were collected on weeks 1, 5, and 11. Serum samples were prepared for detection of anti-dsDNA antibodies. After 13 weeks of treatment, mice were sacrificed and immune complex deposits in their kidneys were evaluated.

[6] = laquinimod 5 mg/kg p.o. compared to vehicle
[7] = study period, compared to placebo
[8] = laquinimod low dose 0.2 mg/kg orally 5 days a week

Compound: O=P1(N(CCCl)CCCl)NCCCO1 (stereo not drawn) [CTX, cyclophosphamide]
- immune complex deposition (ICD) in kidney glomeruli [1]: significantly inhibited
- proteinuria (PU) [1]: significantly diminished the proteinuria

Compound: COc1c(C)c2c(c(O)c1C/C=C(\C)CCC(=O)OCCN1CCOCC1)C(=O)OC2 [MMF, mycophenolate mofetil, reference compound]
- lung BALT hyperplasia (histopathology) ([2]; MMF 100 mg/kg p.o. vs vehicle): significant difference
- kidney glomerulonephritis (histopathology) [2]: significant reductions
- salivary gland inflammation (histopathological scoring) [2]: significant reduction

Compound: CN(Cc1cnc2nc(N)nc(N)c2n1)c1ccc(C(=O)N[C@@H](CCC(=O)O)C(=O)O)cc1 [MTX, methotrexate]
- animals died during the treatment period ([1]; 12 week treatment period, 80 animals in study): 2
- immune complex deposition (ICD) in kidney glomeruli [1]: failed to inhibit the symptoms
- proteinuria (PU) [1]: failed to inhibit the symptoms

Compound: CCN(C(=O)c1c(O)c2c(Cl)cccc2n(C)c1=O)c1ccccc1 [laquinimod]
- bone resorption (joint histopathology) ([2]; both doses of laquinimod (1 and 5 mg/kg p.o.) compared to vehicle): Significant reductions
- salivary gland inflammation score, higher dose vs lower dose ([2]; laquinimod 5 mg/kg compared with 1 mg/kg): significantly lower score
- cartilage damage (joint histopathology) [2, 6]: significant reduction
- joint inflammation (histopathology) [2, 6]: significantly reduced
- splenocytes as percent of total spleen cells [2, 6]: significant reduction
- kidney glomerulonephritis (histopathology) [2]: significant reductions
- salivary gland inflammation (histopathological scoring) [2]: significant reduction
- measures during the in life phase (proteinuria, ankle and paw diameters, dsDNA autoantibody levels, survival) ([2]; laquinimod 1 or 5 mg/kg p.o., trends not significant except for some sporadic time points): trend toward dose dependent efficacy
- tolerability ([3]; compared to placebo): well tolerated
- toxicity ([3]; compared to placebo): no toxicity
- 66 swollen/68 tender joint count (JC66/68) ([3]; study period): reduces
- C-Reactive Protein level ([3]; study period): lowers
- Disease Activity Score using 28 joint counts (DAS28) ([3]; study period): reduces
- anti-dsDNA level ([3]; study period): lowers
- physician global assessment (PGA) score ([3]; study period): reduces
- serum chemokine level ([3]; study period): lowers
- serum cytokine level ([3]; study period): lowers
- BILAG MSK response [3, 7]: improves
- BILAG score [3, 7]: improves
- swollen joint count [3, 7]: reduces
- tender joint count [3, 7]: reduces
- progression of proteinuria ([4]; all doses of laquinimod (0.2, 1.0, 5.0, 25.0 mg/kg) orally 5 days a week, in comparison to vehicle): abrogated the progression of proteinuria
- survival ([4]; all doses of laquinimod (0.2-25 mg/kg), 37 weeks of treatment): significant prolongation of survival
- proteinuria ([4]; laquinimod dose of 0.2 mg/kg orally 5 days a week): abrogated proteinuria but not to the same extent as compared to the higher doses
- proteinuria, compared with positive control CTX ([4]; laquinimod doses of 1, 5 and 25 mg/kg orally 5 days a week): as effective as the positive control cyclophosphamide (CTX)
- anti-dsDNA levels ([4]; serum, weeks 1, 5, 15 and 37, laquinimod 0.2-25 mg/kg): dose dependent reduction in antibody levels over time
- anti-dsDNA levels ([5]; laquinimod 5 mg/kg orally 5 days a week): behaved similarly to the positive control CTX
- immune complex deposits in kidneys ([5]; laquinimod 5 mg/kg orally 5 days a week, after 13 weeks): behaved similarly to the positive control CTX
- disease progression as measured by proteinuria ([5]; laquinimod 0.2 and 5 mg/kg orally 5 days a week, 13 weeks): abrogated disease progression
- anti-dsDNA Ab titers [5, 8]: did not inhibit
- proteinuria [5, 8]: prevented increased proteinuria
- ICD (immune complex deposits) ([5]; laquinimod low dose 0.2 mg/kg orally 5 days a week, after 13 weeks): did not inhibit
- immune complex deposition (ICD) in kidney glomeruli [1]: significantly inhibited
- proteinuria (PU) [1]: significantly diminished the proteinuria
